Measured values taken from patent publication US7005513B1, “Functionalized glycosaminoglycan polymer and medical instruments and drugs by using the same” (Netech, Inc., priority 1999, dated 2006).

System: human coronary artery endothelial cells (CEC)
Assay: CEC proliferation on coated multiplate (WST-1)
Assay type: cell-based
Parameters: reference not given here
Settings: substance as plate coating, 3 days
Description: A polystyrene 96-well multiplate was coated with aqueous P-I-20 or P-N-12 solutions (0.5 mg/ml) of the present invention, and also 2% gelatin and 10 μg/ml of human fibronectin solution, these were inoculated with 6,000 human coronary artery endothelial cells (CEC) suspended in a Dulbecco modified Eagle medium (10% fetal bovine serum added), after which FGF2 or VEGF165 were added as cell growth factors, and this was cultured from 3 days. After culturing, a WST-1 reagent (cell counting kit, Dojindo) was used to count the number of increased cells, and the results of an evaluation of the proliferation rate are shown in Table 1.

Row | Substance | CEC Proliferation Rate (FGF2 4 μg/l) | CEC Proliferation Rate (FGF2 8 μg/l) | CEC Proliferation Rate (VEGF165 4 μg/l) | CEC Proliferation Rate (VEGF165 8 μg/l)
1 | Fibronectin | 273 | 327 | 371 | 436
2 | Gelatin | 356 | 389 | 335 | 385
